From patent US10189803B2, “Synthesis of therapeutic and diagnostic drugs centered on regioselective and stereoselective ring opening of aziridinium ions” (ILLINOIS INSTITUTE OF TECHNOLOGY, priority 2008, dated 2019)

How the values were obtained:
[1] = TEM measurement of self-assembled micelles; type: physicochemical; details: aqueous solution
From the text: Amphifacial cholic acid is a good targeting moiety, and its conjugation to MR contrast agent is expected to form helical globular aggregates with a favorable pharmacokinetic and relaxivity profile. In FIG. 41, cholic acid was converted to an activated amide 1, which was further reacted with a functionalized NE3TA (2) containing an amino group to provide Compound 3. The t-butyl group of Compound 3 was removed by treatment with 4M HCl in 1,4-dioxane to provide CA-NE3TA (4). […] The Gd(III) complex of CA-NE3TA was prepared as described above. Gd(CA-NE3TA) self-assembles into nano-sized micells as evidenced by TEM measurement (˜10 nm, FIG. 24). […] Aggregation of Gd(CA-NE3TA) as evidenced by TEM images is proposed to result from heating during the complexation reaction and/or gadolinium induced cross linking. T1 relaxivity of Gd(CA-NE3TA) in aqueous solution (0.2 mM) was measured to 10.85 mM^−1 s^−1. […] This increase in relaxivity may be a result of slower molecular rotation due to aggregation of the complex as evidenced by the TEM image.
TEM measurement. Stock solutions of compounds CA-NE3TA and Gd(CA-NE3TA) were prepared in 18 MΩ H2O and diluted to the final concentrations of CA-NE3TA (10 μM, pH=5) and Gd(CA-NE3TA) (100 μM or 10 μM, pH=7). In triplicate, a 5 μL aliquot of CA-NE3TA solution was placed on a gold-coated grid (300 mesh, formvar support film, Cat #FF300-Au, Electron Microscopy Sciences, PA). The sample on the grid was air-dried for 5-10 min after each deposition. The grid was air-dried overnight, transferred into a desiccator, and further dried in vacuo for 1.5 days. The sample of Gd(CA-NE3TA) (10 μM) was prepared as described above. […]
TEM images of CDCA-NE3TA indicate that the hydrophobic bile acid conjugated to NE3TA forms discrete semi-square micelles in nanometer size (˜15-60 nm, FIG. 29). […] Aza cholic acid 10 was prepared starting from the readily available cholic acid according to the literature. […]

[2] = tested on: Hela cells; test: Antiproliferative activity, MTS assay, HeLa cells; type: cell-based, Human; details: Homo sapiens; 72 h incubation, MTS
Experimental: (§1) Cell culture Human cervix HeLa cell line was obtained from ATCC (Rockville, Md.) and cultured in minimum essential medium (MEM) with L-glutamine (2 mM), Earle's BSS and sodium bicarbonate (1.5 g/L), supplemented with 10% fetal bovine serum (FBS), non-essential amino acids (0.1 mM), sodium pyruvate (1 mM) and antibiotic/antimycotic solution in a humidified atmosphere with 5% CO2 at 37° C. […] Lung fibroblast MRC-5 cell line was obtained from ATCC (Rockville, Md.) and cultured in ATCC formulated EMEM, supplemented with 10% fetal bovine serum (FBS) in a humidified atmosphere with 5% CO2 at 37° C.
(§2) Antiproliferative Activity. Cells were seeded onto 96-well plate at density of 2,000 cells for Hela cells or 5,000 cells for HT29 cells or 5,000 cells for MRC-5 per well in 0.1 mL complete medium and allowed to attach for 24 h. Varying concentrations of the test compounds in the final volume of 0.1 mL complete medium were then added in at least five series dilutions and incubated for 72 h. To measure cell proliferation, the Cell Titer 96 aqueous nonreactive cell proliferation assay (Promega Life Sciences, Madison, Wis.) was used according to the manufacturer's instructions. Briefly, MTS (2 mg/mL) and PMS (0.92 mg/ml) were mixed in a ratio of 20:1. An aliquot (20 μL) of the MTS/PMS mixture was added into each well, and the plate was incubated for 3 h at 37° C. Optical absorbance at 490 nm was then recorded with an enzyme-linked immunosorbent assay (ELISA) microtiter plate reader (Biotek). Each experiment was done at least in triplicate. Antiproliferative activity of the test compounds was expressed as the fraction of optical densities of treated the cells relative to the untreated solvent controls.^31 The data were plotted in GraphPad Prizm 3.0. Nonlinear regression analysis was used to determine IC50 values.
(§3) Cell culture. Human cervix HeLa cell line was obtained from ATCC (Rockville, Md.) and cultured in minimum essential medium (MEM) with L-glutamine (2 mM), Earle's BSS and sodium bicarbonate (1.5 g/L), supplemented with 10% fetal bovine serum (FBS), non-essential amino acids (0.1 mM), sodium pyruvate (1 mM) and antibiotic/antimycotic solution in a humidified atmosphere with 5% CO2 at 37° C.
as §2, with “activity.” for “Activity.”, “cells” for “cells or 5,000 cells for MRC-5”, “controls.” for “controls.^31”

[3] = tested on: HT29 cells; test: Antiproliferative activity, MTS assay, HT29 cells; type: cell-based, Human; details: Homo sapiens, HT-29, 72 h incubation
Experimental: as §1, §2, §3
as §2, with “activity.” for “Activity.”, “cells” for “cells or 5,000 cells for MRC-5”, “controls.” for “controls.^31”

[4] = T1 relaxivity of Gd(III) complexes (Bruker mq60 NMR analyzer); type: physicochemical; details: aqueous solution (0.2 mM)
Experimental: Gd(NE3TA) and Gd(NE3TA-Bn) were synthesized by reacting GdCl3 with NE3TA and NE3TA-Bn, respectively. NE3TA or NE3TA-Bn were mixed with GdCl3 in a molar ratio of 1 to 0.9, and the resulting mixture at pH 7 was heated to 90° C. and stirred until no free Gd(III) ions were detected using an ArsenazoIII (AAIII) assay. Relaxivity of the aqueous […] complexes (pH 7) was measured on a Bruker MQ60 NMR analyzer, and the concentration of the Gd(III) complexes was measured by ICP-MS. […] NE3TA was successfully conjugated with the most common bile acid, cholic acid (FIG. 41).
(§4) Relaxivity Measurements. Relaxivity measurements were acquired by taking the slope of a plot of 1/T1 (s^−1) versus concentration (mM). The longitudinal water proton relaxation times (T1) were determined using a Bruker mq60 NMR (Bruker Canada, Milton, ON, Canada) analyzer operating at 59.97 MHz and 37° C. The agent was added to Millipore water and serially diluted by 0.5 to give a series of 5 concentrations (500 μL total volume) for each relaxivity trial. The T1 was determined using an inversion recovery pulse sequence with 10 different pulse separations per sample, 4 repetitions per echo time, phase cycling, and a recycle delay that is ≥5 times the T1 of each given sample. All curves were fit using a monoexponential curve fitting formula.
Relaxivity of the aqueous Gd(III) complexes (˜pH 7) were measured on a Bruker MQ60 NMR analyzer, and the concentration of the Gd(III) complexes were measured by ICP-MS. […] As mentioned above, the on and off binding to Gd(III) of one of the pendant coordinates would have resulted enhanced relaxivity of Gd(C-NETA) compared to Gd(C-DOTA). Among the evaluated Gd(III) complexes, Gd(C-NE3TA) gives the highest T1 relaxivity at 60 MHz, probably due to increase in q. The relaxation rates for the Gd(III) chelates are dominated by the inner-sphere dipolar coupling between the coordinated water molecule and the paramagnetic Gd(III). The measured relaxivities arise from the exchange between the coordinated water molecule and the surrounding water molecules in solution. […] No indication of Gd(III) dissociation is evident from the relaxivity data, which is in agreement with the in vitro serum stability and in vivo biodistribution studies.
as §4, with “The T1 relaxivity was determined” for “The T1 was determined”

Row | Compound | micelle size (TEM) [1] | IC50 [2] [µM] | IC50 [3] [µM] | T1 relaxivity [4] [mM⁻¹ s⁻¹]
1 | CC(CCC(=O)Nc1ccc(CC(CN2CCN(CC(=O)O)CCN(CC(=O)O)CC2)NCC(=O)O)cc1)C1CCC2C3C(O)CC4CC(O)CCC4(C)C3CC(O)C12C (centres unmarked) [CA-NE3TA, [4-Carboxymethyl-7-(2-(carboxymethyl-amino)-3-{4-[4-(3,7,12-trihydroxy-10,13-dimethyl-hexadecahydro-cyclopenta[a]phenanthren-17-yl)-pentanoylamino]-phenyl}-propyl)-[1,4,7]triazonan-1-yl]-acetic acid] | 10-50 nm | 24 ± 2.7 | 8.3 ± 2.4 | –
2 | CC(CCC(=O)Nc1ccc(CC(CN2CCN(CC(=O)O)CCN(CC(=O)O)CC2)NCC(=O)O)cc1)C1CCC2C3C(O)CC4CC(O)CCC4(C)C3CCC12C (centres unmarked) [CDCA-NE3TA, [4-Carboxymethyl-7-(2-(carboxymethyl-amino)-3-{4-[4-(3,7-dihydroxy-10,13-dimethylhexadecahydro-cyclopenta[a]phenanthren-17-yl)-pentanoylamino]-phenyl}-propyl)-[1,4,7]triazonan-1-yl]-acetic acid] | 15-60 nm | 24.6 ± 1 | 15.5 ± 3.2 | –
3 | CC(CCC(=O)Nc1ccc(CC(CN2CCN(CC(=O)O)CCN(CC(=O)O)CC2)NCC(=O)O)cc1)C1CCC2C3C(O)CC4CC(O)CCC4(C)C3CC(O)C12C.[Gd] (centres unmarked) [Gd(CA-NE3TA)] | ~10 nm | – | – | 10.85
